Measured values: patent US4370489A, “Herbicidal compounds” (Hoechst Aktiengesellschaft, priority 1976, dated 1983)

Assays:
Echinochloa [1] = experiment: Pre-emergence greenhouse pot trial, Echinochloa (Example V, Table V); type: in vivo
Procedure: (§1) The results and also the results of all following examples were evaluated 4 weeks later according to the following scheme:
(§2) In a greenhouse the compounds to be tested were sprayed on the surface of the soil directly after sowing. […] Dicotyledonous crop plants (the same as used in Example I) were not damaged by the applied amounts.
(§3) Effect on weed grasses in a pre-emergence process (evalua-
(§4) tion scheme) experiment in pots in the greenhouse.

Alopecurus myos. = experiment: Post-emergence treatment, pots on a site without roof, blackgrass (Example IV, Table IV); type: in vivo, annual black-grass (Alopecurus); conditions: for Effect (evaluation scheme), Alopecurus myos.: post-emergence, emulsion concentrate
Procedure: as §1
(§5) In summer a further experiment was carried through under similar conditions to compare the effect of compound 1a with that of comparative compound A. Both compounds were used in the form of an emulsion concentrate (Table IV).
(§6) Post-emergence treatment (evaluation scheme); experiment
(§7) in pots on a site without roof

Digitaria [2] = experiment: Post-emergence greenhouse pot trial, Digitaria (Example I, Table I); type: in vivo; conditions: greenhouse pots, 4 weeks
Procedure: (§8) Seeds of weed grasses were sown in pots filled with loamy soil and placed in the greenhouse for germination and emergence. As soon as the plants had developed 3 or 4 leaves, they were sprayed with wettable powder formulations, suspended in water, of compounds according to the invention.
as §1
(§9) 4 is still considered an acceptable herbicidal effect in weeds and a satisfactory preserving effect in crop plants (cf. Bolle, Nachrichtenblatt des Deutschen Pflanzenschutzdienstes 16, 1964, pages 92-94).
(§10) Effect on weed grasses in a post-emergence trial in pots
(§11) in the greenhouse (Evaluation scheme)

Setaria [3] = experiment: Post-emergence greenhouse pot trial, Setaria (Example I, Table I); type: in vivo; conditions: greenhouse pots, 4 weeks
Procedure: as §8, §1, §9, §10, §11

Avena fatua [4] = experiment: Post-emergence trial in two stages, pots on a site without roof, wild oat (Example II, Table II); type: in vivo; conditions: for 90% effective dose: probit method; for Effect on wild oat (evaluation), Avena fatua: post-emergence
Procedure: as §1
(§12) The amounts of active compound required for a 90% effect, determined by the probit method (cf. Bliss, Annals of Applied Biology, 22 1935), show very distincly the difference between the compound of the invention and the comparative compound. […] None of the compounds did any harm to the wheat.
(§13) Post-emergence treatment in two different stages of development
(§14) Experiments in pots on a site without roof
(§15) stage 1: 3 to 4 leaves with beginning growth of side
(§16) stage 2: main tillering to terminated tillering.

Avena ludoviciana = experiment: Post-emergence treatment, pots on a site without roof, Avena ludoviciana (Example IV, Table IV); type: in vivo; conditions: post-emergence, emulsion concentrate
Procedure: as §1, §5, §6, §7

spring wheat [5] = experiment: Post-emergence trial in two stages, pots on a site without roof, spring wheat (Example II, Table II); type: in vivo
Procedure: as §1, §12, §13, §14, §15, §16

Digitaria [6] = experiment: Pre-emergence greenhouse pot trial, Digitaria (Example V, Table V); type: in vivo
Procedure: as §1, §2, §3, §4

spring wheat [7] = experiment: Post-emergence treatment, pots on a site without roof, spring wheat (Example IV, Table IV); type: in vivo; conditions: emulsion concentrate; also: ranges in brackets are in %
Procedure: as §1, §5, §6, §7

Lolium [8] = experiment: Post-emergence greenhouse pot trial, Lolium (Example I, Table I); type: in vivo; conditions: greenhouse pots, 4 weeks
Procedure: as §8, §1, §9, §10, §11

Setaria [9] = experiment: Pre-emergence greenhouse pot trial, Setaria (Example V, Table V); type: in vivo
Procedure: as §1, §2, §3, §4

wild oat = experiment: Field trial in wild oat, post-emergence treatment (Example VI, Table VI); type: in vivo; conditions: for efficiency in % (counting of panicles) / evaluation 5 weeks after treatment: post-emergence
Procedure: In a field trial compound 1a of the invention was sprayed in the form of a 36% wettable powder formulation onto wild oat (single system, natural growth) after the plants had developed 3 or 4 leaves.
Three lots each were treated with different concentrations of the active compound and the comparative compound, the amount of spray liquor applied being 600 liters per hectare. Besides the usual visual evaluation at the end of the trial, the number of panicles per square meter was counted. In the untreated lots 400 to 500 panicles were counted per square meter, i.e. the field was heavily infected.
The relations are still more distinct when the amount of active compound required for a 90% effect is determined by the probit method (graphical evaluation) mentioned in Example II.

Avena fatua [10] = experiment: Post-emergence treatment, pots on a site without roof, Avena fatua (Example IV, Table IV); type: in vivo; conditions: post-emergence, emulsion concentrate
Procedure: as §1, §5, §6, §7

sugar beet = experiment: Post emergence treatment in two stages, boxes on a site without roof, sugar beet (Table III); type: in vivo; conditions: 0.9 kg/hectare
Procedure: as §1
(§17) Effect on wild oat and sugar beet
(§18) Post emergence treatment in two stages of development
(§19) boxes 20 × 24 × 22 cm in size on a site without roof

Avena fatua [11] = experiment: Post emergence treatment in two stages, boxes on a site without roof, wild oat (Table III); type: in vivo; conditions: 0.9 kg/hectare
Procedure: as §1, §17, §18, §19

Lolium [12] = experiment: Pre-emergence greenhouse pot trial, Lolium (Example V, Table V); type: in vivo
Procedure: as §1, §2, §3, §4

Echinochloa [13] = experiment: Post-emergence greenhouse pot trial, Echinochloa (Example I, Table I); type: in vivo; conditions: greenhouse pots, 4 weeks
Procedure: as §8, §1, §9, §10, §11

Alopecurus = experiment: Post-emergence greenhouse pot trial, annual blackgrass (Example I, Table I); type: in vivo, annual blackgrass (Alopecurus); conditions: for Effect on weed grasses (evaluation scheme number), Alopecurus: greenhouse pots, 4 weeks
Procedure: as §8, §1, §9, §10, §11

spring barley = experiment: Post-emergence treatment, pots on a site without roof, spring barley (Example IV, Table IV); type: in vivo; conditions: emulsion concentrate; also: ranges in brackets are in %
Procedure: as §1, §5, §6, §7

COC(=O)C(C)Oc1ccc(Oc2ccc(Cl)cc2Cl)cc1 (stereo not drawn) [A, methyl-2-[4-(2',4'-dichlorophenoxy)-phenoxy]-propionate, reference compound]
Effect on weed grasses (evaluation scheme), Echinochloa (Echinochloa [1]; 0.62 kg/hectare): 4 (90.0 to <95.0) | Effect on weed grasses (evaluation scheme), Echinochloa (Echinochloa [1]; 1.25 kg/hectare): 3 (95.0 to <.97.5) | Effect (evaluation scheme), Alopecurus myos. (Alopecurus myos.; 0.225 kg/hectare): 8 (32.5 to <65.0) | Effect (evaluation scheme), Alopecurus myos. (Alopecurus myos.; 0.45 kg/hectare): 6 (75.0 to <85.0) | Effect (evaluation scheme), Alopecurus myos. (Alopecurus myos.; 0.9 kg/hectare): 4 (90.0 to <95.0) | response of annual black-grass (Alopecurus) (Alopecurus myos.; in words): little | Effect on weed grasses (evaluation scheme number), Digitaria (Digitaria [2]; 0.15 kg/hectare): 8 (32.5 to <65.0) | Effect on weed grasses (evaluation scheme number), Digitaria (Digitaria [2]; 0.62 kg/hectare): 3 (95.0 to <.97.5) | Effect on weed grasses (evaluation scheme number), Digitaria (Digitaria [2]; 2.5 kg/hectare): 1 (100) | Effect on weed grasses (evaluation scheme number), Setaria (Setaria [3]; 0.15 kg/hectare): 4 (90.0 to <95.0) | Effect on weed grasses (evaluation scheme number), Setaria (Setaria [3]; 0.62 kg/hectare): 2 (97.5 to <100) | Effect on weed grasses (evaluation scheme number), Setaria (Setaria [3]; 2.5 kg/hectare): 1 (100) | 90% effective dose (Avena fatua [4]; stage 1 (3 to 4 leaves with beginning growth of side)): 0.55 kg per hectare | Effect on wild oat (evaluation), Avena fatua (Avena fatua [4]; stage 1, 0.112 kg/hectare): 9 (0 to <32.5) | Effect on wild oat (evaluation), Avena fatua (Avena fatua [4]; stage 1, 0.225 kg/hectare): 8 (32.5 to <65.0) | Effect on wild oat (evaluation), Avena fatua (Avena fatua [4]; stage 1, 0.45 kg/hectare): 5 (85.0 to <90.0) | Effect on wild oat (evaluation), Avena fatua (Avena fatua [4]; stage 1, 0.9 kg/hectare): 3 (95.0 to <.97.5) | 90% effective dose (Avena fatua [4]; stage 2 (main tillering to terminated tillering)): 0.82 kg per hectare | Effect on wild oat (evaluation), Avena fatua (Avena fatua [4]; stage 2, 0.112 kg/hectare): 8 (32.5 to <65.0) | Effect on wild oat (evaluation), Avena fatua (Avena fatua [4]; stage 2, 0.225 kg/hectare): 7 (65.0 to <75.0) | Effect on wild oat (evaluation), Avena fatua (Avena fatua [4]; stage 2, 0.45 kg/hectare): 5 (85.0 to <90.0) | Effect on wild oat (evaluation), Avena fatua (Avena fatua [4]; stage 2, 0.9 kg/hectare): 5 (85.0 to <90.0) | Effect (evaluation scheme), Avena ludoviciana (Avena ludoviciana; 0.225 kg/hectare): 7 (65.0 to <75.0) | Effect (evaluation scheme), Avena ludoviciana (Avena ludoviciana; 0.45 kg/hectare): 7 (65.0 to <75.0) | Effect (evaluation scheme), Avena ludoviciana (Avena ludoviciana; 0.9 kg/hectare): 6 (75.0 to <85.0) | evaluation, spring wheat (spring wheat [5]; stage 1, 0.112 kg/hectare): 1 (0) | evaluation, spring wheat (spring wheat [5]; stage 1, 0.225 kg/hectare): 1 (0) | evaluation, spring wheat (spring wheat [5]; stage 1, 0.45 kg/hectare): 1 (0) | evaluation, spring wheat (spring wheat [5]; stage 1, 0.9 kg/hectare): 1 (0) | evaluation, spring wheat (spring wheat [5]; stage 2, 0.112 kg/hectare): 1 (0) | evaluation, spring wheat (spring wheat [5]; stage 2, 0.225 kg/hectare): 1 (0) | evaluation, spring wheat (spring wheat [5]; stage 2, 0.45 kg/hectare): 1 (0) | evaluation, spring wheat (spring wheat [5]; stage 2, 0.9 kg/hectare): 1 (0) | Effect on weed grasses (evaluation scheme), Digitaria (Digitaria [6]; 0.62 kg/hectare): 7 (65.0 to <75.0) | Effect on weed grasses (evaluation scheme), Digitaria (Digitaria [6]; 1.25 kg/hectare): 4 (90.0 to <95.0) | evaluation scheme, spring wheat (spring wheat [7]; 0.225 kg/hectare): 1 (0) | evaluation scheme, spring wheat (spring wheat [7]; 0.45 kg/hectare): 1 (0) | evaluation scheme, spring wheat (spring wheat [7]; 0.9 kg/hectare): 1 (0) | Effect on weed grasses (evaluation scheme number), Lolium (Lolium [8]; 0.15 kg/hectare): 7 (65.0 to <75.0) | Effect on weed grasses (evaluation scheme number), Lolium (Lolium [8]; 0.62 kg/hectare): 5 (85.0 to <90.0) | Effect on weed grasses (evaluation scheme number), Lolium (Lolium [8]; 2.5 kg/hectare): 3 (95.0 to <.97.5) | Effect on weed grasses (evaluation scheme), Setaria (Setaria [9]; 0.62 kg/hectare): 8 (32.5 to <65.0) | Effect on weed grasses (evaluation scheme), Setaria (Setaria [9]; 1.25 kg/hectare): 6 (75.0 to <85.0) | efficiency in % (counting of panicles) (wild oat; 0.54 kg/hectare): 50.7% | evaluation 5 weeks after treatment (wild oat; 0.54 kg/hectare): 8 (32.5 to <65.0) | efficiency in % (counting of panicles) (wild oat; 0.72 kg/hectare): 59.9% | evaluation 5 weeks after treatment (wild oat; 0.72 kg/hectare): 7 (65.0 to <75.0) | effect on wild oat (wild oat; 0.90 kg per hectare, in words): insufficient | efficiency in % (counting of panicles) (wild oat; 0.90 kg/hectare): 65.2% | evaluation 5 weeks after treatment (wild oat; 0.90 kg/hectare): 6 (75.0 to <85.0) | amount of active compound required for a 90% effect (wild oat; without wetting agent, probit method (graphical evaluation)): 2.7 kg/hectare | Effect (evaluation scheme), Avena fatua (Avena fatua [10]; 0.225 kg/hectare): 8 (32.5 to <65.0) | Effect (evaluation scheme), Avena fatua (Avena fatua [10]; 0.45 kg/hectare): 8 (32.5 to <65.0) | Effect (evaluation scheme), Avena fatua (Avena fatua [10]; 0.9 kg/hectare): 6 (75.0 to <85.0) | sugar beet number (sugar beet; 2-leaf stage): 2 (0 to 2.5) | sugar beet number (sugar beet; 4-leaf stage): 2 (0 to 2.5) | Effect on wild oat, Avena fatua, number (Avena fatua [11]; 3-leaf stage): 2 (97.5 to <100) | degree of damage % (evaluation by weight), Avena fatua (Avena fatua [11]; 3-leaf stage): 99% | Effect on wild oat, Avena fatua, number (Avena fatua [11]; start of tillering): 5 (85.0 to <90.0) | degree of damage % (evaluation by weight), Avena fatua (Avena fatua [11]; start of tillering): 79% | Effect on weed grasses (evaluation scheme), Lolium (Lolium [12]; 0.62 kg/hectare): 6 (75.0 to <85.0) | Effect on weed grasses (evaluation scheme), Lolium (Lolium [12]; 1.25 kg/hectare): 5 (85.0 to <90.0) | Effect on weed grasses (evaluation scheme number), Echinochloa (Echinochloa [13]; 0.15 kg/hectare): 4 (90.0 to <95.0) | Effect on weed grasses (evaluation scheme number), Echinochloa (Echinochloa [13]; 0.62 kg/hectare): 3 (95.0 to <.97.5) | Effect on weed grasses (evaluation scheme number), Echinochloa (Echinochloa [13]; 2.5 kg/hectare): 2 (97.5 to <100) | amount sufficient/required to keep blackgrass satisfactorily under control (Alopecurus; greenhouse): 2.5 kg per hectare | Effect on weed grasses (evaluation scheme number), Alopecurus (Alopecurus; 0.15 kg/hectare): 8 (32.5 to <65.0) | Effect on weed grasses (evaluation scheme number), Alopecurus (Alopecurus; 0.62 kg/hectare): 7 (65.0 to <75.0) | Effect on weed grasses (evaluation scheme number), Alopecurus (Alopecurus; 2.5 kg/hectare): 4 (90.0 to <95.0) | evaluation scheme, spring barley (spring barley; 0.225 kg/hectare): 1 (0) | evaluation scheme, spring barley (spring barley; 0.45 kg/hectare): 1 (0) | evaluation scheme, spring barley (spring barley; 0.9 kg/hectare): 1 (0)
